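Five compound concentrations were applied to cells in 96-well plates for 48 hours; endpoints were derived by simple linear interpolation of the resulting dose-response curve. The concentration for 50% growth inhibition is given as GI50.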 Calls of active or inactive are those of the source. Rule as the data show it: active = GI50 up to about 1.1 µM and inactive = higher.
How the values were obtained:
Test in all cases: growth of human tumour cells (NCI), 48 h
CAKI-1 = tested on: CAKI-1
UACC-257 = tested on: UACC-257
SF-268 = tested on: SF-268
HT-29 = tested on: HT-29
SK-MEL-28 = tested on: SK-MEL-28
IGROV-1 = tested on: IGROV-1
SN12C = tested on: SN12C
OVCAR-5 = tested on: OVCAR-5
TK-10 = tested on: TK-10
OVCAR-8 = tested on: OVCAR-8
NCI-H460 = tested on: NCI-H460
SK-OV-3 = tested on: SK-OV-3
UO-31 = tested on: UO-31
HCC 2998 = tested on: HCC 2998
RPMI-8226 = tested on: RPMI-8226
M14 = tested on: M14
SR = tested on: SR

Measured: GI50

CCCCCCCCCCCCCCC(C)CCC(=O)O (centres undefined)
inactive: CAKI-1 > 100 µM | UACC-257 > 100 µM | SF-268 > 100 µM | HT-29 34.5 µM | SK-MEL-28 > 100 µM | IGROV-1 > 100 µM | SN12C > 100 µM | OVCAR-5 > 100 µM | TK-10 > 100 µM | OVCAR-8 > 100 µM | NCI-H460 31.9 µM

CSc1nc(NC2OCC(OC(C)=O)C(OC(C)=O)C2OC(C)=O)c2c(n1)OCC2=O (centres undefined)
inactive: CAKI-1 > 100 µM | UACC-257 > 100 µM | SK-OV-3 > 100 µM | UO-31 > 100 µM | SF-268 > 100 µM | HT-29 > 100 µM | SK-MEL-28 > 100 µM | IGROV-1 > 100 µM | HCC 2998 > 100 µM | SN12C > 100 µM | OVCAR-5 > 100 µM | TK-10 > 100 µM | RPMI-8226 > 100 µM | OVCAR-8 > 100 µM | NCI-H460 > 100 µM | M14 > 100 µM

Cc1cc(NS(=O)(=O)c2ccc(Nc3c4ccccc4nc4c(C(=O)N5CCN(CCO)CC5)ccc(Cl)c34)cc2)no1
inactive: CAKI-1 > 100 µM | UACC-257 > 100 µM | SK-OV-3 > 100 µM | UO-31 > 100 µM | SF-268 98.9 µM | HT-29 > 100 µM | SK-MEL-28 > 100 µM | IGROV-1 96.2 µM | HCC 2998 71.8 µM | SN12C 72.1 µM | OVCAR-5 > 100 µM | TK-10 > 100 µM | RPMI-8226 70.1 µM | OVCAR-8 > 100 µM | NCI-H460 > 100 µM | M14 > 100 µM

CC1=C(O)/C(=C/C(C)CCC/C(C)=C/C=C/C(C)CCCc2ccoc2)OC1=O (centres undefined)
inactive: CAKI-1 45.5 µM | UACC-257 21.7 µM | UO-31 69.2 µM | SF-268 26.7 µM | HT-29 45.4 µM | SK-MEL-28 25 µM | HCC 2998 23 µM | SN12C 35.3 µM | OVCAR-5 23.8 µM | TK-10 20.9 µM | OVCAR-8 34.4 µM | NCI-H460 30.3 µM | M14 36 µM

O=C(c1ccccc1)c1cn(/N=C\c2ccccc2)c(=O)nc1-c1ccccc1
inactive: UACC-257 > 100 µM | SK-OV-3 > 100 µM | UO-31 > 100 µM | SF-268 > 100 µM | HT-29 > 100 µM | SK-MEL-28 > 100 µM | HCC 2998 > 100 µM | SN12C > 100 µM | OVCAR-5 > 100 µM | TK-10 > 100 µM | OVCAR-8 > 100 µM | NCI-H460 > 100 µM | M14 > 100 µM

CCOc1ccc(/N=C\c2ccc3cc(C)ccc3n2)cc1
inactive: CAKI-1 36.9 µM | UACC-257 76 µM | SK-OV-3 > 100 µM | UO-31 31 µM | SF-268 69 µM | HT-29 34.6 µM | SK-MEL-28 > 100 µM | IGROV-1 77.6 µM | HCC 2998 33.2 µM | SN12C > 100 µM | OVCAR-5 > 100 µM | TK-10 79.3 µM | RPMI-8226 22.8 µM | OVCAR-8 50.2 µM | NCI-H460 69.3 µM | M14 49.1 µM

C[N+](C)(C)CC1CCCC(C[N+](C)(C)C)C1=NO (centres undefined)
inactive: CAKI-1 > 100 µM | UACC-257 > 100 µM | SK-OV-3 > 100 µM | UO-31 > 100 µM | HT-29 > 100 µM | SK-MEL-28 > 100 µM | IGROV-1 > 100 µM | SN12C > 100 µM | OVCAR-5 > 100 µM | SR > 100 µM | TK-10 > 100 µM | RPMI-8226 > 100 µM | OVCAR-8 > 100 µM | NCI-H460 > 100 µM | M14 > 100 µM

O/N=C1/C(=C/c2ccc3c(c2)OCO3)CCCC1C(NO)c1ccc2c(c1)OCO2 (centres undefined)
inactive: CAKI-1 28.6 µM | UACC-257 17.8 µM | SK-OV-3 48.2 µM | UO-31 23.4 µM | SF-268 28.2 µM | HT-29 16.7 µM | SK-MEL-28 21.7 µM | IGROV-1 28.2 µM | HCC 2998 25 µM | SN12C 21.3 µM | TK-10 26.1 µM | RPMI-8226 18.8 µM | OVCAR-8 24.6 µM | NCI-H460 29.4 µM | M14 19.5 µM

CN(C)CCCNc1ccc2ncn3c4ccccc4c(=O)c1c23
inactive: UACC-257 14.6 µM | SK-OV-3 8.59 µM | UO-31 9.27 µM | SF-268 7.6 µM | HT-29 4.88 µM | SK-MEL-28 31.6 µM | IGROV-1 7.66 µM | SN12C 11.5 µM | OVCAR-5 10.7 µM | SR 2.94 µM | TK-10 14.8 µM | RPMI-8226 4.71 µM | OVCAR-8 4.9 µM | NCI-H460 3.43 µM | M14 9.66 µM

Oc1ncnc2c1sc(=S)n2-c1ccccc1
inactive: CAKI-1 > 100 µM | UACC-257 > 100 µM | SK-OV-3 > 100 µM | UO-31 74.6 µM | SF-268 > 100 µM | HT-29 > 100 µM | SK-MEL-28 > 100 µM | IGROV-1 > 100 µM | HCC 2998 > 100 µM | SN12C > 100 µM | OVCAR-5 > 100 µM | SR > 100 µM | TK-10 > 100 µM | OVCAR-8 > 100 µM | NCI-H460 > 100 µM | M14 > 100 µM

O=c1c2ccccc2c(=O)c2c1cc(Cl)c1[nH]c3c([nH]c12)c(Cl)cc1c(=O)c2ccccc2c(=O)c13
inactive: CAKI-1 > 100 µM | UACC-257 > 100 µM | SK-OV-3 > 100 µM | UO-31 > 100 µM | SF-268 > 100 µM | HT-29 > 100 µM | SK-MEL-28 > 100 µM | IGROV-1 > 100 µM | HCC 2998 > 100 µM | SN12C > 100 µM | OVCAR-5 > 100 µM | TK-10 > 100 µM | RPMI-8226 > 100 µM | OVCAR-8 > 100 µM | NCI-H460 > 100 µM | M14 > 100 µM

CN(C)c1n/c(=N/c2ccc3c(c2)OCO3)ss1
inactive: CAKI-1 97.7 µM | UACC-257 > 100 µM | SK-OV-3 > 100 µM | UO-31 27.2 µM | SF-268 47.6 µM | HT-29 38.5 µM | SK-MEL-28 > 100 µM | IGROV-1 > 100 µM | HCC 2998 44.4 µM | SN12C 73.6 µM | OVCAR-5 > 100 µM | TK-10 > 100 µM | RPMI-8226 19.3 µM | OVCAR-8 72.1 µM | NCI-H460 47.4 µM | M14 > 100 µM

Cc1cn2c(=O)c3ncn(C4OC(CO)C(O)C4O)c3n(C)c2n1 (centres undefined)
inactive: CAKI-1 > 100 µM | UACC-257 > 100 µM | SK-OV-3 > 100 µM | UO-31 > 100 µM | SF-268 > 100 µM | HT-29 > 100 µM | SK-MEL-28 > 100 µM | IGROV-1 > 100 µM | HCC 2998 > 100 µM | SN12C > 100 µM | OVCAR-5 > 100 µM | TK-10 > 100 µM | RPMI-8226 > 100 µM | OVCAR-8 > 100 µM | NCI-H460 > 100 µM | M14 > 100 µM

Source: ChEMBL document CHEMBL1201862, “PubChem BioAssay data set” (2004)
